Reference: patent publication US6841559B1, “Pyridinones to treat and prevent bacterial infections” (Washington University of St. Louis, priority 1999, dated 2005)

Assays:
[1] = molecular target: periplasmic chaperone PapD (Escherichia coli, UniProt P15319); experiment: Direct binding assay on BIACORE 3000, immobilized PapD; details: pyridinone 30 uM, 25° C., 30 μL/min, triplicate, Sensor Chip CM5
Procedure: (§1) The affinity of the following pyridinone: [drawing 73] for periplasmic chaperones PapD and FimC were investigated using a direct binding assay on BIACORE 3000. Methods
(§2) PapD (50 μg/ML in 10 mM NaAc pH 5.5) and FimC (50 μg/mL in 10 mM NaAc pH 5.5) were mobilized on Sensor Chi CM5 using standard thiol coupling procedure. This procedure was also employed for coupling of non-target proteins. Immobilization levels of 4000-10000 RU were obtained. Unmodified dextrane in one of the flow cells was used as reference surface.
(§3) The pyridinone was diluted from 10 mM DMSO stock solution to a final concentration of 30 μM in running buffer (6.7 mM phosphate buffer (9.6 g Na2HPO4.2H2O, 1.7 G KH2PO4, 4.1 g NaCl, 100 mL H2O), 3.4 mM EDTA, 0.01% TWEEN, 5% DMSO, pH 7.4) so that the concentrations of DMSO and buffer substances were carefully matched. The compounds were injected (flow rate was 30 μL/min at 25° C.) and the binding of the compounds to the immobilized chaperone proteins was observed on real time. The surface was regenerated by injection of 10 mM glycin.HCl, pH 2.0 and then washed with a 1:1 mixture of DMSO and water.
(§4) For screening of the affinity of the compounds of PapD and FimC, the pyridinone was injected (flow rate was 30 μL/min at 25° C.) at a concentration of 30 μM in triplicate. […]
as §3, with “KH2PO2PO4,” for “KH2PO4,”, “water. […]” for “water.”
(§5) A direct binding assay on BIACORE 3000 was employed to test the affinity of the following pyridinone: [drawing 76] for periplasmic chaperones PapD and FimC. Methods

[2] = molecular target: periplasmic chaperone FimC (Escherichia coli, UniProt P31697); experiment: Direct binding assay on BIACORE 3000, immobilized FimC; details: pyridinone 30 uM, 25° C., 30 μL/min, triplicate, Sensor Chip CM5
Procedure: as §1, §2, §3, §4
as §3, with “KH2PO2PO4,” for “KH2PO4,”, “water. […]” for “water.”
as §5

Sequence of periplasmic chaperone FimC (P31697 37-241): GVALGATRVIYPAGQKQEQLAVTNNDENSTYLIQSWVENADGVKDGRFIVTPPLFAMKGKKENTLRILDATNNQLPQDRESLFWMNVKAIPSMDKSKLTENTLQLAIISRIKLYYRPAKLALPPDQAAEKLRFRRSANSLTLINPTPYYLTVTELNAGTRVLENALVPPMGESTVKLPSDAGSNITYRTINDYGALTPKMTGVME
Sequence of periplasmic chaperone PapD (P15319 22-239): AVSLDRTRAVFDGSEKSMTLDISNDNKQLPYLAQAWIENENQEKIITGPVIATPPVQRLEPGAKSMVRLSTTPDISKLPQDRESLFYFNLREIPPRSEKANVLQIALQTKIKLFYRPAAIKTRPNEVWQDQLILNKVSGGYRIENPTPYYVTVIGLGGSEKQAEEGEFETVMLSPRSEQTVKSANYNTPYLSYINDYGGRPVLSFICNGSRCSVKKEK

Row | Compound | Response Units PapD 30 uM [1] | Response Units FimC 30 uM [2]
1 | O=C(O)[C@@H]1CSc2c(-c3ccccc3)c(Cc3cccc4ccccc34)cc(=O)n21 [Ph_Pyr_COOH] | 46,22397585 Response Units | 60,71350348 Response Units
2 | O=C(O)[C@@H]1CSc2cc(Cc3cccc4ccccc34)cc(=O)n21 [H_Pyr_COOH] | 6,760176162 Response Units | 11,69075072 Response Units
3 | Cc1cc(=O)n2c(c1-c1ccccc1)SC[C@H]2C(=O)O [Me_Ph_Pyr_COOH] | 3,90056354 Response Units | 6,753367367 Response Units
4 | Cc1cc(=O)n2c(c1C)SC[C@H]2C(=O)O [Me_Me_Pyr_COOH] | 1,676914034 Response Units | 6,535311642 Response Units
